Test system: T-47D spheroids with HUVEC/MSC, viability
Assay: Anticancer human tumor T-47D cell line growth inhibition [PI3K];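 also: spheroids exposed to agents for seven days before reading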;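 as to viability, T/C: percent of DMSO vehicle control luminescence so 100% = untreated growth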
Conditions: for viability, T/C: stronger effect = lower value
Summary of the method: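 Tumor cells grown as multi-cell spheroids with HUVEC endothelial cells and MSC fibroblast-like stroma were treated with targeted agents combined with inavolisib, alpelisib, duvelisib or copanlisib. Doses fell in half-log steps from near clinical Cmax, else from 10 microM. Viability was measured.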

[1] = curve of first compound, second compound 0.0316 µM
[2] = curve of first compound, second compound 0.1 µM
[3] = curve of first compound, second compound 0.316 µM
[4] = curve of first compound, second compound 1 µM
[5] = second compound 0.0316 µM, first compound 0.000316 µM
[6] = second compound 0.0316 µM, first compound 0.001 µM
[7] = second compound 0.0316 µM, first compound 0.00316 µM
[8] = second compound 0.0316 µM, first compound 0.01 µM
[9] = second compound 0.0316 µM, first compound 0.0316 µM
[10] = second compound 0.0316 µM, first compound 0.1 µM
[11] = second compound 0.1 µM, first compound 0.000316 µM
[12] = second compound 0.1 µM, first compound 0.001 µM
[13] = second compound 0.1 µM, first compound 0.00316 µM
[14] = second compound 0.1 µM, first compound 0.01 µM
[15] = second compound 0.1 µM, first compound 0.0316 µM
[16] = second compound 0.1 µM, first compound 0.1 µM
[17] = second compound 0.316 µM, first compound 0.000316 µM
[18] = second compound 0.316 µM, first compound 0.001 µM
[19] = second compound 0.316 µM, first compound 0.00316 µM
[20] = second compound 0.316 µM, first compound 0.01 µM
[21] = second compound 0.316 µM, first compound 0.0316 µM
[22] = second compound 0.316 µM, first compound 0.1 µM
[23] = second compound 1 µM, first compound 0.000316 µM
[24] = second compound 1 µM, first compound 0.001 µM
[25] = second compound 1 µM, first compound 0.00316 µM
[26] = second compound 1 µM, first compound 0.01 µM
[27] = second compound 1 µM, first compound 0.0316 µM
[28] = second compound 1 µM, first compound 0.1 µM

CC(C)n1nc(-c2ccc3oc(N)nc3c2)c2c(N)ncnc21 + Cc1nc(NC(=O)N2CCCC2C(N)=O)sc1-c1ccnc(C(C)(C)C(F)(F)F)c1
IC50 [1]: 72.6 nM
IC50 [2]: 60.8 nM
IC50 [3]: 52.5 nM
IC50 [4]: 26.7 nM
IC50 (curve of first compound, second compound 3.16 µM): 9.07 nM
IC50 (curve of first compound, second compound 10 µM): < 0.316 nM
viability, T/C [5]: 106%
viability, T/C [6]: 94.2%
viability, T/C [7]: 95.9%
viability, T/C [8]: 95.9%
viability, T/C [9]: 78.8%
viability, T/C [10]: 38.7%
viability, T/C [11]: 110%
viability, T/C [12]: 87.2%
viability, T/C [13]: 99.3%
viability, T/C [14]: 109%
viability, T/C [15]: 79%
viability, T/C [16]: 27.9%
viability, T/C [17]: 101%
viability, T/C [18]: 98.9%
viability, T/C [19]: 82.3%
viability, T/C [20]: 92.7%
viability, T/C [21]: 67.4%
viability, T/C [22]: 26.9%
viability, T/C [23]: 89%
viability, T/C [24]: 93.2%
viability, T/C [25]: 86.3%
viability, T/C [26]: 70.7%
viability, T/C [27]: 47%
viability, T/C [28]: 21.2%
viability, T/C (second compound 3.16 µM, first compound 0.000316 µM): 62.9%
viability, T/C (second compound 3.16 µM, first compound 0.001 µM): 68.3%
viability, T/C (second compound 3.16 µM, first compound 0.00316 µM): 64.6%
viability, T/C (second compound 3.16 µM, first compound 0.01 µM): 42.7%
viability, T/C (second compound 3.16 µM, first compound 0.0316 µM): 33.1%
viability, T/C (second compound 3.16 µM, first compound 0.1 µM): 6.08%
viability, T/C (second compound 10 µM, first compound 0.000316 µM): 37.5%
viability, T/C (second compound 10 µM, first compound 0.001 µM): 40.2%
viability, T/C (second compound 10 µM, first compound 0.00316 µM): 33.1%
viability, T/C (second compound 10 µM, first compound 0.01 µM): 21.7%
viability, T/C (second compound 10 µM, first compound 0.0316 µM): 12.8%
viability, T/C (second compound 10 µM, first compound 0.1 µM): 2.67%

CC(C)n1nc(-c2ccc3oc(N)nc3c2)c2c(N)ncnc21 + CC(Nc1ccc2c(c1)OCCn1cc(N3C(=O)OCC3C(F)F)nc1-2)C(N)=O
IC50 (curve of first compound, second compound 0.00316 µM): 69.5 nM
IC50 (curve of first compound, second compound 0.01 µM): 59.6 nM
IC50 [1]: 51.4 nM
IC50 [2]: 28.4 nM
IC50 [3]: 5.64 nM
IC50 [4]: 2.28 nM
viability, T/C (second compound 0.00316 µM, first compound 0.000316 µM): 112%
viability, T/C (second compound 0.00316 µM, first compound 0.001 µM): 98%
viability, T/C (second compound 0.00316 µM, first compound 0.00316 µM): 110%
viability, T/C (second compound 0.00316 µM, first compound 0.01 µM): 91.2%
viability, T/C (second compound 0.00316 µM, first compound 0.0316 µM): 88.6%
viability, T/C (second compound 0.00316 µM, first compound 0.1 µM): 33%
viability, T/C (second compound 0.01 µM, first compound 0.000316 µM): 89.2%
viability, T/C (second compound 0.01 µM, first compound 0.001 µM): 97.4%
viability, T/C (second compound 0.01 µM, first compound 0.00316 µM): 94.4%
viability, T/C (second compound 0.01 µM, first compound 0.01 µM): 83.2%
viability, T/C (second compound 0.01 µM, first compound 0.0316 µM): 72.5%
viability, T/C (second compound 0.01 µM, first compound 0.1 µM): 32.2%
viability, T/C [5]: 94.6%
viability, T/C [6]: 101%
viability, T/C [7]: 84.5%
viability, T/C [8]: 82.4%
viability, T/C [9]: 70.5%
viability, T/C [10]: 25.5%
viability, T/C [11]: 76%
viability, T/C [12]: 90.8%
viability, T/C [13]: 89.9%
viability, T/C [14]: 71.1%
viability, T/C [15]: 48.5%
viability, T/C [16]: 17%
viability, T/C [17]: 68.2%
viability, T/C [18]: 65.1%
viability, T/C [19]: 56.5%
viability, T/C [20]: 41.8%
viability, T/C [21]: 29.9%
viability, T/C [22]: 5.87%
viability, T/C [23]: 57.6%
viability, T/C [24]: 56.2%
viability, T/C [25]: 47.9%
viability, T/C [26]: 34.4%
viability, T/C [27]: 18.8%
viability, T/C [28]: 3.47%

Cn1cnc2c(F)c(Nc3ccc(Br)cc3Cl)c(C(=O)NOCCO)cc21
viability, T/C (compound 0.00949 µM): 98.5% [middle of 4 runs]
viability, T/C (compound 0.0949 µM): 95.3% [middle of 4 runs]
viability, T/C (compound 0.3 µM): 98.9% [middle of 4 runs]
viability, T/C (compound 0.949 µM): 88% [middle of 4 runs]
viability, T/C (compound 3 µM): 95.5% [middle of 4 runs]
IC50 (curve of compound): > 3000 nM

CC(C)NCC(C(=O)N1CCN(c2ncnc3c2C(C)CC3O)CC1)c1ccc(Cl)cc1 (configuration not stated)
viability, T/C (compound 0.0316 µM): 99.4% [middle of 4 runs]
viability, T/C (compound 0.1 µM): 83.5% [middle of 4 runs]
viability, T/C (compound 0.316 µM): 84.9% [middle of 4 runs]
viability, T/C (compound 1 µM): 79.4% [middle of 4 runs]
viability, T/C (compound 3.16 µM): 64.1% [middle of 4 runs]
viability, T/C (compound 10 µM): 52.3% [middle of 4 runs]
IC50 (curve of compound): > 10000 nM

— PubChem BioAssay AID1963959 (Molecular Pharmacology Branch, DTP, NCI, 2024)
